System: Plasmodium berghei NK 65 strain
Experiment: animal or person
Format: in vivo
Details: for Survival days (mean survival days, treatment group minus control group) / Recovery Rate (suppression): 4 days; for Recovery Rate (suppression): P. berghei infected ICR mice; for Acute toxicity in treated mice: 25 mg/kg/day dose
Source text: For a test to evaluate therapeutic effect of the compound, 4-day suppressive test which is commonly used for in vivo test to evaluate activity of anti-malaria compound was used. In this experiment, rodent malaria protozoa (Plasmodium berghei NK 65 strain) were used. The infected blood was collected from 5-weeks age (SPF) ICR strain male mouse which were infected intraperitoneally and successively cultured. From the caudal vein of the infected mouse, blood was collected to calculate infection rate. After confirming that infection rate was adequately elevated (10% to 20% infection), the malaria infected blood was collected from the heart of the mouse. The infection rate and count of the red blood cells (cells/mL) were calculated. The infected red blood cell was diluted with PBS buffer to achieve […] protozoa per 0.2 mL dose. The infected cells were injected to the caudal vein of uninfected mouse (ICR strain, male, 5-weeks age) to cause infection. Five mice were made into one group, and the test compound was administered in predefined concentration. From 2 hours after infection, the compound was administered every 24 hours for straight 4 days.
The compound of the invention to be used in this test was dissolved in saline (Otsuka Pharmaceutical Co., Ltd.) to obtain test solution of predefined concentration. When the compound was not dissolved in saline, it was dissolved in SSV (saline containing 0.5% sodium=carboxymethyl cellulose, 0.5% benzyl alcohol, 0.4% Tween 80) to prepare test solution. For the control group (non-treatment group), only saline (Otsuka) was administered. Positive controls S-1 to S-5 were dissolved in saline (Otsuka) or SSV in predetermined concentration to prepare test solution. When the compound was not dissolved in saline, it was dissolved in SSV. After measuring weight of each mouse, the dose for each mouse was calculated to achieve 5.0 to 40 mg concentration for weight1 kg.
Five mice were made into one group, and the test compound was administered intraperitoneally at predefined concentration. From 2 hours after infection, the compound was administered every 24 hours for straight 4 days. Subsequent to the 24 hours after last treatment, blood was collected from the tail of the mouse to prepare thin layer smear in order to count malaria protozoa infection in the treatment group and the control group under microscope. The mice showing maximum value and minimum value were excluded from the average calculation (average was calculated for three mice), to determine malaria protozoa infection rate (Parasitemia).
Using malaria protozoa infection rate thus calculated, recovery rate obtained from the test compound (suppression) was determined.
Recovery rate: suppression(%)=(b−a)/b×100 a: Protozoa infection rate in the treatment group b: Protozoa infection rate in the control group Mean survival days: MSD(day)=c−d c: Average days from the initial treatment (date of malaria infection) to the date of death for the treatment group (5 mice) d: Average days from the date of malaria infection to the date of death for the non-treatment (control) group (5 mice) […]
Tables 5 to 7 illustrate the recovery rate (%) and survival days (day) of malaria infected mice treated with intraperitoneal injection of the test compound and the control compound at predefined concentration. The meaning of symbols in the table is as follows.

[1] = Plasmodium berghei, ip, 96 h, read-out: Recovery Rate (suppression)
[2] = dose 25 mg/kg/d intraperitoneally

SMILES	Survival days (mean survival days, treatment group minus control group) [2] [days]	Recovery Rate (suppression) [2] [%]	further results
CCN1C(=O)/C(=C2\C=Cc3ccccc3N2C)S/C1=N\c1cccc[n+]1C [Compound A-14]			inhibition in vivo at 10 mg/kg/day [1]: 64.5%
CCN1C(=O)/C(=C2\C=CC=CN2C)S/C1=N\c1cc[n+](C)c2cc(Cl)ccc12 [Compound A-15]	2.0		inhibition in vivo at 25 mg/kg/day [1]: 60.3%
CCn1c(=O)/c(=C2\C=CC=CN2C)s/c1=C1\S/C(=N\c2sc3cc(Cl)ccc3[n+]2C)N(c2ccccc2)C1=O [Compound B-11]			inhibition in vivo at 25 mg/kg/day [1]: 82.7%
CCn1c(=O)/c(=C2\C=CC=CN2C)s/c1=C1\S/C(=N\c2scc(-c3ccc(Cl)cc3)[n+]2C)N(c2ccccc2)C1=O [Compound B-13]			inhibition in vivo at 25 mg/kg/day [1]: 95.6%
CCn1c(=O)/c(=C2\C=CC=CN2C)s/c1=C1\S/C(=N\c2sc3cc(Cl)ccc3[n+]2C)N(Cc2ccccc2)C1=O [Compound B-16]			inhibition in vivo at 20 mg/kg/day [1]: 97.4%
CCn1c(=O)/c(=C2\C=CC=CN2C)s/c1=C1\S/C(=N\c2sc3cc(Cl)ccc3[n+]2C)N(c2ccc(OC)cc2)C1=O [Compound B-17]	6.8		inhibition in vivo at 25 mg/kg/day [1]: 73.1%
CCn1c(=O)/c(=c2\nc3c(o2)=CC=CN3C)s/c1=C1\S/C(=N\c2sc3cc(Cl)ccc3[n+]2C)N(Cc2ccccc2)C1=O [Compound B-18]	7.0	22.39	
CCn1c(=O)/c(=C2\C=CC=CN2C)s/c1=C1\S/C(=N\c2scc[n+]2C)N(Cc2ccccc2)C1=O [Compound B-21]	7.0	80.4	
CCn1c(=O)/c(=C2\SCCN2C)s/c1=C1\S/C(=N\c2scc[n+]2C)N(Cc2ccccc2)C1=O [Compound B-23]	7.0	85.1	
CCn1c(=O)/c(=C2\SCCN2C)s/c1=C1\S/C(=N\c2sc3cc(Cl)ccc3[n+]2C)N(c2ccc(OC)cc2)C1=O [Compound B-26]	2.0	64.3	
CCN1C(=O)/C(=c2/s/c(=C3/SCCN3C)c(=O)n2CC)S/C1=N\c1scc[n+]1C [Compound B-27]	2.0	55.4	
CCN1C(=O)/C(=c2/s/c(=C3/SCCN3C)c(=O)n2CC)S/C1=N\c1sc2ccccc2[n+]1C [Compound B-31]	1.7	90.6	
C=CCN1C(=O)/C(=c2/s/c(=C3/C=CC=CN3C)c(=O)n2CC)S/C1=N\c1sc2cc(Cl)ccc2[n+]1C [Compound B-38]		95.7	
C=CCN1C(=O)/C(=c2/s/c(=C3/SCCN3C)c(=O)n2CC)S/C1=N\c1scc[n+]1C [Compound B-41]	1.3	58.5	
CCN1C(=O)/C(=C/C=C2\Sc3ccccc3N2C)S/C1=N\c1c(O)ccc[n+]1C [Compound C-3]			Recovery Rate (suppression) (dose 5.0 mg/kg/d intraperitoneally): 43.9%
CCN1C(=O)/C(=C/C=C2\Sc3ccccc3N2C)S/C1=N\c1scc(-c2ccc(Cl)cc2)[n+]1C [Compound C-4]			inhibition in vivo at 5 mg/kg/day [1]: 37.9%
CCn1c(=O)/c(=C2\Sc3ccccc3N2C)s/c1=C\c1cccc[n+]1CC [Compound S-1, reference compound]			inhibition in vivo at 10 mg/kg/day [1]: 30%; Toxicity noted [2]: toxic
C=CCn1c(=O)/c(=C2\Sc3ccccc3N2C)s/c1=C\c1cccc[n+]1C [Compound S-2, reference compound]			Acute toxicity in treated mice: caused death; inhibition in vivo at 10 mg/kg/day [1]: 27%
CCn1c(=O)/c(=C2\Sc3ccc4ccccc4c3N2C)s/c1=C\c1cccc[n+]1C [Compound S-4, reference compound]			Acute toxicity in treated mice: caused death; inhibition in vivo at 5 mg/kg/day [1]: 17.1%; inhibition in vivo at 10 mg/kg/day [1]: 36%; Toxicity noted [2]: toxic
CCn1c(=O)/c(=c2/s/c(=C3/Sc4ccccc4N3C)c(=O)n2CC)s/c1=C\c1sc2ccccc2[n+]1C [Compound S-5, reference compound]			inhibition in vivo at 5 mg/kg/day [1]: 41%

From patent publication US20090076067A1, “PHARMACEUTICAL COMPOSITION COMPRISING AZARHODACYANINE COMPOUND AS ACTIVE INGREDIENT” (priority 2005, published 2009)
